± gives the expanded uncertainty stated by the source.
Key:
[1] = mn = molality of the nth substance listed, in mol/kg; details: 101 kPa, Liquid, Pycnometric method, m1 = 1.5
[2] = 101.33 kPa, Liquid, Pycnometric method

Compound | mass density ([1]; 298.15 K) [kg/m3] | mass density ([1]; 303.15 K) [kg/m3] | mass density ([1]; 308.15 K) [kg/m3] | mass density ([1]; 313.15 K) [kg/m3] | mass density ([1]; 318.15 K) [kg/m3] | mass density ([1]; 323.15 K) [kg/m3] | mass density ([2]; 308.15 K) [kg/m3] | mass density ([2]; 318.15 K) [kg/m3] | mass density ([2]; 323.15 K) [kg/m3]
O=[N+]([O-])[O-].[K+] [potassium nitrate] + O | 1086.9 ± 0.6 | 1085 ± 0.6 | 1083 ± 0.6 | 1080.6 ± 0.6 | 1077.9 ± 0.6 | 1075 ± 0.6 | – | – | –
[Cl-].[Na+] [sodium chloride] + O | 1058.8 ± 0.6 | 1056.1 ± 0.6 | 1053.8 ± 0.6 | 1051.4 ± 0.6 | 1048.8 ± 0.6 | 1046.2 ± 0.6 | – | – | –
O=[N+]([O-])[O-].[Na+] [sodium nitrate] + O | 1079.1 ± 0.6 | 1076.5 ± 0.6 | 1073.5 ± 0.6 | 1070.3 ± 0.6 | 1067 ± 0.6 | 1063.7 ± 0.6 | – | – | –
O [water] | – | – | – | – | – | – | 994.2 ± 0.5 | 990.3 ± 0.5 | 987.9 ± 0.5
